pEC50: −log10 of the molar value. Counter-ions that a name gives are not always drawn.
Tested on: A549 cells (human Non Small Cell Lung Cancer)
Test: cytotoxicity assay with A549 cells using standard Alamar Blue Assay
Details: for cell vitality: A549 cells, 48 h incubation, Alamar Blue, versus control cells, L-Glutamate at 2 mM
Description: A Dulbecco's modified Eagle's Medium (Sigma D0422), supplemented with Glutamine and 10% foetal calf serum (FCS) were used as incubation buffer. The cells were incubated for 48 h with test compounds and investigated according to manufacturer's protocol.
Afterwards, cell vitality was measured with the Alamar Blue assay kit as described above.

Row | Compound | cell vitality | pEC50 (Homo sapiens, A549, read-out: EC50 (cell vitality))
1 | N[C@@H](C[C@H](CCCF)C(=O)O)C(=O)O [Example 1] | strong decrease of the cell vitality | ~4.42
2 | N[C@@H](C[C@H](Cc1cc(C(F)(F)F)ccc1F)C(=O)O)C(=O)O [Example 5, Neutral sodium salt of (2S,4S)-2-Amino-4-(2-fluoro-5-trifluoromethyl-benzyl)-pentane dioic acid] | strong decrease of the cell vitality | 
3 | N[C@@H](CCC(=O)O)C(=O)O [L-Glutamate, reference compound] | no differences in cell vitality | 

Source: patent US20140227191A1, “L-GLUTAMIC ACID AND L-GLUTAMINE DERIVATIVE (III), USE THEREOF AND METHOD FOR OBTAINING THEM” (BAYER SCHERING PHARMA AKTIENGESELLSCHAFT, priority 2008, published 2014)
